From patent US8614202B2, “2α-methyl and 2β-methyl analogs of 19,26,27-trinor-(20S)-1α-hydroxyvitamin D3 and their uses” (Wisconsin Alumni Research Foundation, priority 2004, dated 2013)

Columns and labels:
[1] = tested on: 24-hydroxylase (24Ohase) gene promoter in ROS 17/2.8 (bone) cells; experiment: In vitro transcription assay (24-hydroxylase promoter luciferase reporter); format: cell-based; conditions: ROS 17/2.8 cells, 24Ohase-luciferase, sixteen hours after dosing; read-out: EC50, transcriptional activity in bone cells
Experimental: In Vitro Transcription Assay
Transcription activity was measured in ROS 17/2.8 (bone) cells that were stably transfected with a 24-hydroxylase (24Ohase) gene promoter upstream of a luciferase reporter gene (Arbour et al., 1998). Cells were given a range of doses. Sixteen hours after dosing the cells were harvested and luciferase activities were measured using a luminometer. • RLU=relative luciferase units. Intestinal Calcium Transport and Bone Calcium Mobilization

[2] = target: T1, full-length recombinant rat vitamin D receptor (Rattus norvegicus, UniProt P13053); experiment: Vitamin D receptor binding, competition with [3H]-1,25(OH)2D3; conditions: full-length recombinant rat VDR; 1 nM radioligand
T1 construct: Full-length recombinant rat receptor was expressed in E. coli BL21 (DE3) Codon Plus RIL cells; histidine tag (C); made in house; host or cells: E. coli BL21 (DE3) Codon Plus RIL
T1 sequence (P13053 1-423): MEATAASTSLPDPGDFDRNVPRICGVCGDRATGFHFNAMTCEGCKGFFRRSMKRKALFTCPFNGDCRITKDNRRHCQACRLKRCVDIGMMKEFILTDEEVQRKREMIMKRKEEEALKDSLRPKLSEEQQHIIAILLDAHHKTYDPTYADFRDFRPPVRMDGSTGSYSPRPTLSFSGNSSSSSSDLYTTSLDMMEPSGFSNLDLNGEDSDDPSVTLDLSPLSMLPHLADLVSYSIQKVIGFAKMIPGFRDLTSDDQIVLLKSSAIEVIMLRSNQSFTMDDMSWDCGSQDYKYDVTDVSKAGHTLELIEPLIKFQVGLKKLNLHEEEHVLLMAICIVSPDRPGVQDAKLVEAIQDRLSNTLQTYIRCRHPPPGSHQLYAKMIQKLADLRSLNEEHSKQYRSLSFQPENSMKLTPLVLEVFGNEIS
Source text: Vitamin D Receptor Binding
Full-length recombinant rat receptor was expressed in E. coli BL21 (DE3) Codon Plus RIL cells and purified to homogeneity using two different column chromatography systems. The first system was a nickel affinity resin that utilizes the C-terminal histidine tag on this protein. The protein that was eluted from this resin was further purified using ion exchange chromatography (S-Sepharose Fast Flow). Aliquots of the purified protein were quick frozen in liquid nitrogen and stored at −80° C. until use. For use in binding assays, the protein was diluted in TEDK50 (50 mM Tris, 1.5 mM EDTA, pH7.4, 5 mM DTT, 150 mM KCl) with 0.1% Chaps detergent. The receptor protein and ligand concentration were optimized such that no more than 20% of the added radiolabeled ligand was bound to the receptor.
Radiolabeled and unlabeled ligands were added to 100 mcl of the diluted protein at a final ethanol concentration of ≦10%, mixed and incubated overnight on ice to reach binding equilibrium. The following day, 100 mcl of hydroxylapatite slurry (50%) was added to each tube and mixed at 10-minute intervals for 30 minutes. The hydroxylapaptite was collected by centrifugation and then washed three times with Tris-EDTA buffer (50 mM Tris, 1.5 mM EDTA, pH 7.4) containing 0.5% Titron X-100. […] Total binding was determined from the tubes containing only radiolabeled ligand.

[3] = tested on: Human promyelocytic leukemia (HL60) cells; experiment: HL-60 differentiation (nitro blue tetrazolium reduction); format: cell-based; conditions: four days after treatment
Experimental: The study drugs were dissolved in ethanol and the concentrations determined using UV spectrophotometry. Serial dilutions were prepared so that a range of drug concentrations could be tested without changing the final concentration of ethanol (≦0.2%) present in the cell cultures.
Human promyelocytic leukemia (HL60) cells were grown in RPMI-1640 medium containing 10% fetal bovine serum. The cells were incubated at 37° C. in the presence of 5% CO2.
HL60 cells were plated at 1.2×10^5 cells/ml. Eighteen hours after plating, cells in duplicate were treated with drug. Four days later, the cells were harvested and a nitro blue tetrazolium reduction assay was performed (Collins et al., 1979; J. Exp. Med. 149:969-974). The percentage of differentiated cells was determined by counting a total of 200 cells and recording the number that contained intracellular black-blue formazan deposits. Verification of differentiation to monocytic cells was determined by measuring phagocytic activity (data not shown).

[4] = Bone calcium mobilization (serum calcium) in vitamin D-deficient rats; format: in vivo, Sprague-Dawley rats
Experimental: Male, weanling Sprague-Dawley rats were placed on Diet 11 (0.47% Ca) diet+AEK for one week followed by Diet 11 (0.02% Ca)+AEK for 3 weeks. The rats were then switched to a diet containing 0.47% Ca for one week followed by two weeks on a diet containing 0.02% Ca. Dose administration began during the last week on 0.02% calcium diet. Four consecutive ip doses were given approximately 24 hours apart. Twenty-four hours after the last dose, blood was collected from the severed neck and the concentration of serum calcium determined as a measure of bone calcium mobilization. The first 10 cm of the intestine was also collected for intestinal calcium transport analysis using the everted gut sac method.
Calcium mobilization from bone in vitamin D-deficient animals.

[5] = low calcium diet (0.02%), four consecutive ip doses, overall / all dosages

Row | EC50 [1] [nM] | Ki [2] [nM] | EC50 [3] [nM] | SMILES | calcium mobilization from bone (serum calcium) [4, 5] | calcium mobilization from bone (serum calcium) ([4]; 0.02% Ca diet, 780 pmol/day for 4 consecutive days) | calcium mobilization from bone (serum calcium) ([4]; 0.02% Ca diet, 2340 pmol/day) | calcium mobilization from bone (serum calcium) ([4]; 0.02% Ca diet, 7020 pmol/day)
1 | 100 | 10 | 100 | CCCCC(C)C1CCC2C(=CC=C3CC(O)C(C)C(O)C3)CCCC21C (single isomer, unassigned) [N-16] |  |  |  | 
2 | 10 | 0.22 | 8.2 | CCCCC(C)C1CCC2C(=CC=C3CC(O)C(C)C(O)C3)CCCC21C (single isomer, unassigned) [C-19] | little, if any, activity in mobilizing calcium from bone | did not result in mobilization of bone calcium | without any substantial effect | without any substantial effect

Row | SMILES | EC50 [1] [nM] | Ki [2] [nM] | EC50 [3] [nM] | calcium mobilization from bone (serum calcium) [4, 5] | calcium mobilization from bone (serum calcium) ([4]; 0.02% Ca diet, 780 pmol/day for 4 consecutive days) | calcium mobilization from bone (serum calcium) ([4]; 0.02% Ca diet, 2340 pmol/day) | calcium mobilization from bone (serum calcium) ([4]; 0.02% Ca diet, 7020 pmol/day)
3 | C=C1/C(=C\C=C2/CCC[C@]3(C)[C@@H]([C@H](C)CCCC(C)(C)O)CC[C@@H]23)C[C@@H](O)C[C@@H]1O [1,25(OH)2D3, 1α,25-dihydroxyvitamin D3, reference compound] |  |  | 2.9 | increased serum calcium levels at all dosages |  |  | 
